Legend:
[1] = test system: BaF3 expressing FIG-ROS(L); assay: MTS cell growth assay, BaF3 cells expressing FIG-ROS(L); assay type: cell-based; settings: FIG. 6; 0-1000 nM TAE-684, 72 hours
Procedure: (§1) BaF3 and Karpas 299 cells were obtained from DSMZ (Deutsche Sammlung von Mikroorganismen und Zellkulturen GmbH, Germany). BaF3 cells, which need interleukin-3 to survive, were maintained at 37° C. in RPMI-1640 medium (Invitrogen) with 10% fetal bovine serum (FBS) (Sigma) and 1.0 ng/ml murine IL-3 (R&D Systems). Karpas 299 cells (a lymphoma cell line) were grown in RPMI-1640 with 10% FBS.
(§2) BaF3 cells were transduced with retrovirus encoding FIG-ROS(S), FIG-ROS(L), or FLT-3ITD (the Internal tandem duplication mutation in FLT3 causes AML leukemia), and selected for IL3 independent growth. Karpas 299 cells, which express NPM-ALK, was used as a positive control. Retroviruses were generated as previously described (see PCT Publication No. WO 2010/093928, incorporated by reference).
(§3) A MTS assay was performed using the CellTiter 96 Aqueous One Solution Reagent (Promega, Catalog No G3582). […] After 72 hours, 20 μl of the CellTiter 96 Aqueous One Solution Reagent was added into each well of a 96 well assay plate (flat bottom), and then 100 μl of cells grown with or without treatment. Media-only wells were used as controls. The 96 well plate was incubated for 1-4 hours at 37° C., and then viable cells were counted by reading the absorbance at 490 nm using a 96 well plate reader.

[2] = test system: BaF3 expressing FIG-ROS(S); assay: MTS cell growth assay, BaF3 cells expressing FIG-ROS(S); assay type: cell-based; settings: FIG. 6; 0-1000 nM TAE-684, 72 hours
Procedure: as §1, §2, §3

[3] = test system: BaF3 expressing FLT3ITD; settings: FIG. 6; 0-1000 nM TAE-684, 72 hours
Procedure: as §1, §2, §3

[4] = test system: Karpas 299 cells; settings: FIG. 6; 0-1000 nM TAE-684, 72 hours
Procedure: as §1, §2, §3

[5] = test system: BaF3 cells expressing FIG-ROS(S); assay: Cleaved caspase-3 flow cytometry apoptosis assay, BaF3 FIG-ROS(S); assay type: cell-based; settings: FIG. 7; presence of TAE-684
From the text: (§4) The mechanism of death of the BaF3 and Karpas 299 cells was next assessed by measuring the percentage of cleaved-caspase 3 positive cells by flow cytometry assay using cleaved caspase-3 as a marker for apoptosis.

[6] = test system: BaF3 cells expressing FIG-ROS(L); assay: Cleaved caspase-3 flow cytometry apoptosis assay, BaF3 FIG-ROS(L); assay type: cell-based; settings: FIG. 7; presence of TAE-684
From the text: as §4

[7] = test system: Karpas 299 cells; assay: Cleaved caspase-3 flow cytometry apoptosis assay, Karpas 299; assay type: cell-based; settings: FIG. 7; presence of TAE-684
From the text: as §4

[8] = target: T1, FIG-ROS(S) (Homo sapiens, UniProt P08922); assay: Western blotting, phosphorylation of FIG-ROS(S) in BaF3 cells; assay type: cell-based
T1 construct: expressed in transfected cells; host or cells: BaF3 cells, retroviral transduction
From the text: (§5) All antibodies were from Cell Signaling Technology, Inc. (Danvers, Mass.)
(§6) Since ROS, ALK, LTK, InsR, and IGFIR belong to the same family of tyrosine kinases, they may share similar structure in the kinase domain.

[9] = target: FIG-ROS(L) (Homo sapiens, UniProt P08922); assay: Western blotting, phosphorylation of FIG-ROS(L) in BaF3 cells; assay type: cell-based
From the text: as §5, §6

[10] = test system: STAT3, AKT, ERK, Shp2; assay: Western blotting, downstream signaling phosphorylation in FIG-ROS(S) and FIG-ROS(L) expressing BaF3 cells; assay type: cell-based
From the text: as §5, §6

[11] = test system: STAT3, AKT, ERK, Shp2; assay: Western blotting, downstream signaling phosphorylation in BaF3 cells transduced with FLT-3ITD; assay type: cell-based; settings: BaF3 FLT-3ITD
From the text: as §5, §6

[12] = test system: ERK, STAT3; assay: Western blotting, ERK/STAT3 phosphorylation in Karpas 299 cells; assay type: cell-based
From the text: as §5, §6

[13] = FIG. 8, 0, 10, 50, or 100 nM TAE-684 for three hours
[14] = FIG. 10, 0, 0.1, 0.3, or 1.0 uM crizotinib for three hours

Row | phosphorylation of FIG-ROS(S) [8, 13] | phosphorylation of FIG-ROS(L) [9, 13] | phosphorylation of FIG-ROS(S) [8, 14] | phosphorylation of FIG-ROS(L) [9, 14] | SMILES | cellular growth response [1] | cellular growth response [2] | cellular growth response [3] | cellular growth response [4] | mechanism of death (cleaved-caspase 3 positive cells) [5] | mechanism of death (cleaved-caspase 3 positive cells) [6] | mechanism of death (cleaved-caspase 3 positive cells) [7] | phosphorylation of STAT3, AKT, and ERK, and Shp2 [10, 13] | phosphorylation of STAT3, AKT, and ERK, and Shp2 [11, 13] | ERK phosphorylation [12, 13] | phosphorylation of STAT3 and ERK [10, 14] | phosphorylation of STAT3 and ERK [11, 14] | STAT3 and ERK phosphorylation [12, 14]
1 | inhibited | inhibited |  |  | COc1cc(N2CCC(N3CCN(C)CC3)CC2)ccc1Nc1ncc(Cl)c(Nc2ccccc2S(=O)(=O)C(C)C)n1 [TAE-684] | stopped growing | stopped growing | not susceptible | stopped growing | die by apoptosis | die by apoptosis | did not die by apoptosis | inhibited | not affected | inhibited |  |  | 
2 |  |  | inhibited | inhibited | C[C@@H](Oc1cc(-c2cnn(C3CCNCC3)c2)cnc1N)c1c(Cl)ccc(F)c1Cl [crizotinib] |  |  |  |  |  |  |  |  |  |  | inhibited | not affected | inhibited

Source: patent publication US20170275706A1, “ALK AND ROS KINASE IN CANCER” (priority 2010, published 2017)
